Structures can show the parent of a compound that is named as a salt.
biological target: Bile salt export pump (Homo sapiens, UniProt O95342); type: ADME

Compound	IC50 [µM]
Cc1ccccc1C(OCCN(C)C)c1ccccc1 (stereo unspecified) [ORPHENADRINE]	> 1000
C[C@@H]1O[C@@H](O[C@H]2C[C@@H](O)[C@]3(CO)[C@H]4[C@H](O)C[C@]5(C)[C@@H](C6=CC(=O)OC6)CC[C@]5(O)[C@@H]4CC[C@]3(O)C2)[C@H](O)[C@H](O)[C@H]1O [OUABAIN]	> 1000
CNCC(O)c1ccc(O)cc1 (stereo unspecified) [OXEDRINE]	> 1000
CN(C(=O)CN(CCO)CC(=O)N(C)C(C)(C)Cc1ccccc1)C(C)(C)Cc1ccccc1 [OXETHAZAINE]	< 10
CCCOc1ccc2nc(NC(=O)OC)[nH]c2c1 [OXIBENDAZOLE]	> 1000
C=CCOc1ccccc1OCC(O)CNC(C)C (stereo unspecified) [OXPRENOLOL]	> 1000
Oc1cccc2cccnc12 [OXYQUINOLINE]	> 1000
CC(C)(CO)[C@@H](O)C(=O)NCCC(=O)O [PANTOTHENIC ACID]	> 1000
COc1ccc(Cc2nccc3cc(OC)c(OC)cc23)cc1OC [PAPAVERINE]	< 10
CCCCc1ccc2[nH]c(NC(=O)OC)nc2c1 [PARBENDAZOLE]	> 1000
Fc1ccc([C@@H]2CCNC[C@H]2COc2ccc3c(c2)OCO3)cc1 [PAROXETINE HYDROCHLORIDE]	68.9
N=C(N)c1ccc(OCCCCCOc2ccc(C(=N)N)cc2)cc1 [PENTAMIDINE]	> 1000
C1CCc2nnnn2CC1 [PENTYLENETETRAZOL]	> 1000
C1CCC(C(CC2CCCCN2)C2CCCCC2)CC1 (stereo unspecified) [PERHEXILINE]	14.4
OCCN1CCN(CCCN2c3ccccc3Sc3ccc(Cl)cc32)CC1 [PERPHENAZINE]	34.8
NC(=O)NC(=O)Cc1ccccc1 [PHENACEMIDE]	> 1000
NNCCc1ccccc1 [PHENELZINE]	> 897
CC(Oc1ccccc1)C(=O)N[C@@H]1C(=O)N2[C@@H]1SC(C)(C)[C@@H]2C(=O)O (stereo partly specified) [PHENETHICILLIN]	< 10
[H]/N=C(/N)N/C(=N/[H])NCCc1ccccc1 [PHENFORMIN]	> 1000
CN(C)CCC(c1ccccc1)c1ccccn1 (stereo unspecified) [PHENIRAMINE MALEATE]	> 1000
CN1C(=O)CC(c2ccccc2)C1=O (stereo unspecified) [PHENSUXIMIDE]	> 1000
CC(N/C(=N\C#N)Nc1ccncc1)C(C)(C)C (stereo unspecified) [PINACIDIL ANHYDROUS]	161

Compound	IC50 [µM]
CCc1ccc(CCOc2ccc(CC3SC(=O)NC3=O)cc2)nc1 (stereo unspecified) [PIOGLITAZONE]	0.262
CCN1CCN(C(=O)N[C@@H](C(=O)N[C@@H]2C(=O)N3[C@@H]2SC(C)(C)[C@@H]3C(=O)O)c2ccccc2)C(=O)C1=O [PIPERACILLIN]	197
CCCCOCCOCCOCc1cc2c(cc1CCC)OCO2 [PIPERONYL BUTOXIDE]	< 10
CN1CCN(CC(=O)N2c3ccccc3C(=O)Nc3cccnc32)CC1 [PIRENZEPINE]	> 1000
NS(=O)(=O)c1cc(C(=O)O)cc(N2CCCC2)c1Oc1ccccc1 [PIRETANIDE]	> 791
C[n+]1ccccc1/C=N/O [PRALIDOXIME]	> 1000
O=C(C1CCCCC1)N1CC(=O)N2CCc3ccccc3C2C1 (stereo unspecified) [PRAZIQUANTEL]	60.3
COc1cc2nc(N3CCN(C(=O)c4ccco4)CC3)nc(N)c2cc1OC [PRAZOSIN]	172
COc1cc(NC(C)CCCN)c2ncccc2c1 (stereo unspecified) [PRIMAQUINE]	53.1
CCCC(C(=O)OCCN(CC)CC)(c1ccccc1)c1ccccc1 [PROADIFEN]	< 13.2
CCCN(CCC)S(=O)(=O)c1ccc(C(=O)O)cc1 [PROBENECID]	587
CCCc1c2oc(C(=O)O)cc(=O)c2cc2c(=O)cc(C(=O)O)oc12 [PROBICROMIL]	> 1000
CC(C)(Sc1cc(C(C)(C)C)c(O)c(C(C)(C)C)c1)Sc1cc(C(C)(C)C)c(O)c(C(C)(C)C)c1 [PROBUCOL]	> 1000
CCN(CC)CCOC(=O)c1ccc(N)cc1 [PROCAINE]	> 1000
CCCc1c2c(cc3c(=O)cc(C(=O)O)oc13)CCCC2 [PROCROMIL]	606
CCCNCC(O)COc1ccccc1C(=O)CCc1ccccc1 (stereo unspecified) [PROPAFENONE]	53.7
CC(C)[N+](C)(CCOC(=O)C1c2ccccc2Oc2ccccc21)C(C)C [PROPANTHELINE BROMIDE]	291
CC(Cc1ccc2c(c1)OCO2)NCC(O)c1ccc(O)c(O)c1 (stereo unspecified) [PROTOKYLOL HYDROCHLORIDE]	> 982
CNCCCC1c2ccccc2C=Cc2ccccc21 [PROTRIPTYLINE]	129
CCCc1c2c(c(O)c3c(=O)cc(C(=O)O)oc13)CCCC2 [PROXICROMIL]	30 to 30.5
CN(C)C(=O)Oc1ccc[n+](C)c1 [PYRIDOSTIGMINE BROMIDE]	> 1000
COc1ccc(CN(CCN(C)C)c2ccccn2)cc1 [PYRILAMINE]	> 1000
CCc1nc(N)nc(N)c1-c1ccc(Cl)cc1 [PYRIMETHAMINE]	200

Compound	IC50 [µM]
CN1CC[C@@]2(C)c3cc(OC(=O)N4CCc5ccccc5C4)ccc3N(C)[C@@H]12 [QUILOSTIGMINE]	< 10
CCN(CC)CCCC(C)Nc1c2ccc(Cl)cc2nc2ccc(OC)cc12 (stereo unspecified) [QUINACRINE]	101
C=C[C@H]1C[N@@]2CC[C@H]1C[C@H]2[C@H](O)c1ccnc2ccc(OC)cc12 [QUININE]	98.8
COc1cc(Nc2ncc(F)c(Nc3ccc4c(n3)NC(=O)C(C)(C)O4)n2)cc(OC)c1OC [R-406]	197
C[C@H](NCc1ccc(OCc2ccccc2F)cc1)C(N)=O [RALFINAMIDE]	175
O=C(O)CCn1c2c(c3ccccc31)C[C@H](NS(=O)(=O)c1ccc(F)cc1)CC2 [RAMATROBAN]	62.4
CCC(=O)NCC[C@@H]1CCc2ccc3c(c21)CCO3 [RAMELTEON]	85 to 85.4
CC(Cc1ccccc1)(NC(=O)CN)c1ccccc1 (stereo unspecified) [REMACEMIDE]	288
CCN1CCC[C@H]1CNC(=O)c1c(OC)ccc(Br)c1OC [REMOXIPRIDE]	< 10
COC(=O)[C@H]1[C@H]2C[C@@H]3c4[nH]c5cc(OC)ccc5c4CCN3C[C@H]2C[C@@H](OC(=O)c2cc(OC)c(OC)c(OC)c2)[C@@H]1OC [RESERPINE]	< 10
Nc1nc2ccc(OC(F)(F)F)cc2s1 [RILUZOLE]	139
Cc1c(C(=O)NN2CCCCC2)nn(-c2ccc(Cl)cc2Cl)c1-c1ccc(Cl)cc1 [RIMONABANT]	< 10
CS(=O)(=O)c1ccc(C2=C(c3ccccc3)C(=O)OC2)cc1 [ROFECOXIB]	95.4
CCCN1CCCC[C@H]1C(=O)Nc1c(C)cccc1C [ROPIVACAINE]	646
O=C(O)c1c(Cl)c(Cl)c(Cl)c(Cl)c1-c1c2cc(I)c(=O)c(I)c-2oc2c(I)c(O)c(I)cc12 [ROSE BENGAL SODIUM]	< 10
O=[N+]([O-])c1cc([As](=O)(O)O)ccc1O [ROXARSONE]	> 1000
O=C(O)CCCCCCCNC(=O)c1ccccc1O [SALCAPROZIC ACID]	> 751
OCc1ccccc1O[C@@H]1O[C@H](CO)[C@@H](O)[C@H](O)[C@H]1O [SALICIN]	> 1000
NC(=O)c1ccccc1O [SALICYLAMIDE]	> 1000
O=C(Oc1ccccc1C(=O)O)c1ccccc1O [SALSALATE]	> 1000
CN1[C@@H]2C[C@@H](OC(=O)[C@H](CO)c3ccccc3)C[C@H]1[C@@H]1O[C@@H]12 [SCOPOLAMINE]	> 1000
CCN(CC)CCNC(=O)c1ccc(NS(C)(=O)=O)cc1 [SEMATILIDE]	> 1000
CC1=C(C)C(=O)C(C(CCCCCC(=O)O)c2ccccc2)=C(C)C1=O (stereo unspecified) [SERATRODAST]	< 14.3

Compound	IC50 [µM]
CN[C@H]1CC[C@@H](c2ccc(Cl)c(Cl)c2)c2ccccc21 [SERTRALINE]	29.3
O=c1[nH]c2c(O)ccc(CCNCCS(=O)(=O)CCCOCCc3ccccc3)c2s1 [SIBENADET]	< 10
CO[C@H]1C[C@@H]2CC[C@@H](C)[C@@](O)(O2)C(=O)C(=O)N2CCCC[C@H]2C(=O)O[C@H]([C@H](C)C[C@@H]2CC[C@@H](O)[C@H](OC)C2)CC(=O)[C@H](C)/C=C(\C)[C@@H](O)[C@@H](OC)C(=O)[C@H](C)C[C@H](C)/C=C/C=C/C=C/1C [SIROLIMUS]	< 10
N[C@@H](CC(=O)N1CCn2c(nnc2C(F)(F)F)C1)Cc1cc(F)c(F)cc1F [SITAGLIPTIN]	148
CNC(=O)c1cc(Oc2ccc(NC(=O)Nc3ccc(Cl)c(C(F)(F)F)c3)cc2)ccn1 [SORAFENIB]	< 10
O=C(CCCN1CCC2(CC1)C(=O)NCN2c1ccccc1)c1ccc(F)cc1 [SPIPERONE]	< 10
CCOC(=O)[C@H](CCc1ccccc1)N[C@@H](C)C(=O)N1CC2(C[C@H]1C(=O)O)SCCS2 [SPIRAPRIL HYDROCHLORIDE]	47.1
O=C(O)CCC(=O)Nc1ccc(S(=O)(=O)Nc2nccs2)cc1 [SUCCINYLSULFATHIAZOLE]	> 1000
CC(=O)NS(=O)(=O)c1ccc(N)cc1 [SULFACETAMIDE]	> 1000
Nc1ccc(S(=O)(=O)Nc2ccc(Cl)nn2)cc1 [SULFACHLORPYRIDAZINE]	> 1000
Nc1ccc(S(=O)(=O)Nc2ncccn2)cc1 [SULFADIAZINE]	> 1000
COc1cc(NS(=O)(=O)c2ccc(N)cc2)nc(OC)n1 [SULFADIMETHOXINE]	> 1000
COc1ncnc(NS(=O)(=O)c2ccc(N)cc2)c1OC [SULFADOXINE]	> 1000
Cc1ccnc(NS(=O)(=O)c2ccc(N)cc2)n1 [SULFAMERAZINE]	> 1000
Cc1cc(C)nc(NS(=O)(=O)c2ccc(N)cc2)n1 [SULFAMETHAZINE]	> 1000
Cc1nnc(NS(=O)(=O)c2ccc(N)cc2)s1 [SULFAMETHIZOLE]	> 1000
Cc1cc(NS(=O)(=O)c2ccc(N)cc2)no1 [SULFAMETHOXAZOLE]	> 1000
Cc1noc(NS(=O)(=O)c2ccc(N)cc2)c1C [SULFISOXAZOLE]	> 1000
CCN1CCCC1CNC(=O)c1cc(S(N)(=O)=O)ccc1OC (stereo unspecified) [SULPIRIDE]	276
CCN(CC)CCNC(=O)c1c(C)[nH]c(/C=C2\C(=O)Nc3ccc(F)cc32)c1C [SUNITINIB]	45.8
Cc1ccc(C(=O)Nc2ccc(S(=O)(=O)O)c3cc(S(=O)(=O)O)cc(S(=O)(=O)O)c23)cc1NC(=O)c1cccc(NC(=O)Nc2cccc(C(=O)Nc3cc(C(=O)Nc4ccc(S(=O)(=O)O)c5cc(S(=O)(=O)O)cc(S(=O)(=O)O)c45)ccc3C)c2)c1 [SURAMIN]	107
CC[C@H](NC(=O)c1c(O)c(-c2ccccc2)nc2ccccc12)c1ccccc1 [TALNETANT]	< 10

Reference: ChEMBL document CHEMBL4017441, “Mitigating the inhibition of human bile salt export pump by drugs: opportunities provided by physicochemical property modulation, in silico modeling, and structural modification” (Drug Metab Dispos, 2012)
